From US8759504B2, “Cholinergic/serotoninergic receptor and uses thereof” (AbbVie Inc., priority 2007, dated 2014)
Read-outs that look alike come from different tables or passages of the source.

Legend:
Chimera 1 = Chimera 1 (Homo sapiens, UniProt P36544, M226I/T225V); test: Membrane potential imaging (FLIPR-FMP) in HEK-293 cells; assay type: cell-based; set-up: expressed in transfected cells
Chimera 2 [1] = target: T1, Chimera 2 (Homo sapiens, UniProt P36544, M226I/T225V); test: as above; assay type: cell-based; set-up: expressed in transfected cells
T1 sequence (P36544 with tags, fused parts or gaps T225V/M226I): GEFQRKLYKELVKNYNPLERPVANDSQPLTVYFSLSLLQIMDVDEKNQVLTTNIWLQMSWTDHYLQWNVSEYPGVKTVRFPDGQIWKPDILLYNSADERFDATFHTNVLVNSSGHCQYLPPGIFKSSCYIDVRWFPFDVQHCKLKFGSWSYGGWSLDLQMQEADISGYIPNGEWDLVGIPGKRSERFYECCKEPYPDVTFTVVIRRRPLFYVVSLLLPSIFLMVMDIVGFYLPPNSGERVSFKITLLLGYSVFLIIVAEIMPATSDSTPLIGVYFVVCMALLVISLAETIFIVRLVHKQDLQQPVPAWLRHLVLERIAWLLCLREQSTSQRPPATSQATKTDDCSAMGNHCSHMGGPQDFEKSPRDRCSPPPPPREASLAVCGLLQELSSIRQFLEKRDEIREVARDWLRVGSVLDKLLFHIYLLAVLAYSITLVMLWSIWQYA

Chimera 2 [2] = target: T1, Chimera 2; test: Two electrode voltage clamp in Xenopus oocytes (POETs), agonist and modulator responses; assay type: cell-based; set-up: expressed in transfected cells; host or cells: Xenopus laevis oocytes (transient, A2); conditions: Xenopus oocytes, data not shown
[3] = target: T2, rat brain α7* nicotinic acetylcholine receptors (Rattus norvegicus, UniProt Q05941); test: [3H]A-585539 radioligand binding, rat brain homogenates
T2 construct: expressed both as a native (rat cortex) or α7/5-HT3 chimeric receptor; from tissue; host or cells: rat brain / rat cortex homogenates
T2 sequence (Q05941 23-502): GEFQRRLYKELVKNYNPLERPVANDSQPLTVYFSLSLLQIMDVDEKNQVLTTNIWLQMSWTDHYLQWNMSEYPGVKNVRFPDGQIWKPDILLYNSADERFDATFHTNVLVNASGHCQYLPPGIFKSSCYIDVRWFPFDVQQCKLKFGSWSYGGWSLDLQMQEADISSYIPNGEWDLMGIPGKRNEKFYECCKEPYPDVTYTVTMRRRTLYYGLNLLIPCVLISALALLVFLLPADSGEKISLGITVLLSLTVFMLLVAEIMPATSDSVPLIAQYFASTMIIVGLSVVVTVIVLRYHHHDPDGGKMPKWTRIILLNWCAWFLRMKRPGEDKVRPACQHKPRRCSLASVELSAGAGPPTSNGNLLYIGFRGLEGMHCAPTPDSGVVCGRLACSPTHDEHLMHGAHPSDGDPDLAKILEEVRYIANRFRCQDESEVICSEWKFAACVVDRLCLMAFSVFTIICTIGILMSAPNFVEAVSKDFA

Chimera 2 [4] = target: T1, Chimera 2; test: [3H]A-585539 radioligand binding, HEK-293 membranes/homogenates; set-up: expressed in transfected cells; conditions: increasing concentrations
[5] = HEK293, read-out: Maximum efficacy (mean±S.E.M.), membrane potential imaging, HEK-293 cells
[6] = read-out: Agonist potency, membrane potential imaging: EC50 (95% C.I.), HEK-293 cells
[7] = HEK293, read-out: Agonist maximum efficacy, control (no modulator)
[8] = HEK293, read-out: Agonist maximum efficacy, in the presence of 10 μM genistein
[9] = HEK293, read-out: Agonist maximum efficacy, in the presence of 1 mM 5-HI
[10] = read-out: Agonist concentration-response EC50, control (no modulator)
[11] = read-out: Agonist concentration-response EC50, in the presence of 10 μM genistein
[12] = read-out: Agonist concentration-response EC50, in the presence of 1 mM 5-HI

Chimera 1, sequence (P36544 with tags, fused parts or gaps T225V/M226I): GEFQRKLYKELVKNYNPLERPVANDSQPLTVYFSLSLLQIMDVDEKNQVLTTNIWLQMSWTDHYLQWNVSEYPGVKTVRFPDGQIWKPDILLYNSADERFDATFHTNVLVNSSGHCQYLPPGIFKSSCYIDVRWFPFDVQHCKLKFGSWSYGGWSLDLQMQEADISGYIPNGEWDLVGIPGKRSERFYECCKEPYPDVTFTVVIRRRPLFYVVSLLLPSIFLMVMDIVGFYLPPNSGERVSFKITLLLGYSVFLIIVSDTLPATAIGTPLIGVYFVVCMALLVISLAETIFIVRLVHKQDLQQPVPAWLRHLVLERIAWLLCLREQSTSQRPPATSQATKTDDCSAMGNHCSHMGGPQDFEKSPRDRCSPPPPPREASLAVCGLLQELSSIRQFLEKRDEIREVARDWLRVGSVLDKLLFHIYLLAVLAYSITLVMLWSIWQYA

Q: What does the source list for `c1ccc(-c2nnc(N3CCN4CCC3CC4)o2)cc1` [NS6784, 2-(1,4-diazabicyclo[3.2.2]nonan-4-yl)-5-phenyl-1,3,4-oxadiazole]?
A: Emax (Chimera 1; [5]): 100%; FLIPR-FMP pEC50 ± SEM (Chimera 1; HEK-293 cells): 6.8 ± 0.10; EC50 (Chimera 1; [6]): 133 nM; Emax (Chimera 2 [1]; [5]): 107 ± 5%; FLIPR-FMP pEC50 ± SEM (Chimera 2 [1]; HEK-293 cells): 7.1 ± 0.04; EC50 (Chimera 2 [1]; [6]): 72 nM

Q: Which results are given for `O=C(N[C@H]1CN2CCC1CC2)c1ccc(Cl)cc1` [PNU-282987]?
A: Emax (Chimera 1; [7]): 98 ± 2%; Emax (Chimera 1; [8]): 87 ± 3%; Emax (Chimera 1; [9]): 157 ± 13%; Emax (Chimera 1; [5]): 107 ± 9%; FLIPR-FMP pEC50 ± SEM (Chimera 1; HEK-293 cells): 6.8 ± 0.07; EC50 (Chimera 1; [10]): 343 nM; EC50 (Chimera 1; [11]): 527 nM; EC50 (Chimera 1; [12]): 145 nM; EC50 (Chimera 1; [6]): 204 nM; Emax (Chimera 2 [1]; [7]): 100 ± 0.01%; Emax (Chimera 2 [1]; [8]): 207 ± 21%; Emax (Chimera 2 [1]; [9]): 156 ± 4%; Emax (Chimera 2 [1]; [5]): 99 ± 2%; FLIPR-FMP pEC50 ± SEM (Chimera 2 [1]; HEK-293 cells): 7.0 ± 0.04; EC50 (Chimera 2 [1]; [10]): 75 nM; EC50 (Chimera 2 [1]; [11]): 72 nM; EC50 (Chimera 2 [1]; [12]): 37 nM; EC50 (Chimera 2 [1]; [6]): 53 nM

Q: With `Br.CO[C@H]1CC=C2CCN3CCC4=C(CC(=O)OC4)[C@]23C1` [dihydro-β-erythroidine hydrobromide] as the molecule, how does the “Effect on the inward current evoked by NS-1738 alone” value (Chimera 2 [2]) read?
A: The value was “inhibited the inward current observed during the NS-1738 exposure”.

Q: Which results are given for `CCN1C[C@]2(COC(=O)c3ccccc3N3C(=O)C[C@H](C)C3=O)CC[C@H](OC)[C@@]34[C@@H]5C[C@H]6[C@H](OC)[C@@H]5[C@](O)(C[C@@H]6OC)[C@@](O)([C@@H](OC)[C@H]23)[C@@H]14` [methyllycaconitine]?
A: Competition / displacement of [3H]A-585539 binding [3]: competed with the binding; Competition / displacement of [3H]A-585539 binding (Chimera 2 [4]): competed with the binding
